Measurements published in patent US11771084B2, “Preservation of personal care compositions” (SHARON LABORATORIES LTD., priority 2018, dated 2023).
In brackets after ≈: the same amount, converted by molar mass. Where two headings read alike, the source gives them in different places.

Assays:
[1] = Maltol shielding: absorbance at 410 nm, chelators, stainless steel 316; type: physicochemical; conditions: 0.5% solution of 90% Maltol and 10% Polyquaternium-80 in demineralized water, stainless steel 316 chip 12 hr
Source text: Maltol has a metal chelating property. It can bond with metal ions and form a chelate product that can be strongly colored. This reaction is highly likely to happen when maltol is used in a manufacturing process involving steel based equipment. It means that even small quantities of these chelates could induce an undesirable color in a finished cosmetic product. A way to inhibit this phenomenon would be to add to maltol a small quantity of a stronger chelating agent, in order to intercept possible metal ions before Maltol could do so. Thus, an examination of various chelating agents in order to “protect” the Maltol from chelating metal ions was done. Procedure: […]

S. aureus ATCC 6538 = assay: MIC evaluation test; type: cell-based, Staphylococcus aureus
Method: (§1) The culture is standardized using standard microbiological techniques to have a concentration of very near 1 million cells per milliliter.
(§2) The antimicrobial agent is diluted a number of times, with Tryptic soy broth or sabouraud broth for fungi. After the antimicrobial agent had been diluted, a volume of the standardized inoculums was added to each dilution vessel, bringing the microbial concentration to approximately 1,000,000 cells per milliliter. The inoculated, serially diluted antimicrobial agent was incubated at an appropriate temperature for the test organism, 24 hours for bacteria 48 for yeast and 72 for mold.
(§3) MIC results are expressed in ppm.
(§4) The microorganism strains used for the test were E. coli ATCC 8739, P. aeruginosa ATCC 9027, S. aureus ATCC 6538, C. albicans ATCC 10231, A. niger ATCC 16404.

E. coli ATCC 8739 = assay: MIC evaluation test; type: cell-based, Escherichia coli
Method: as §1, §2, §3, §4

P. aeruginosa ATCC 9027 = assay: MIC evaluation test; type: cell-based, Pseudomonas aeruginosa
Method: as §1, §2, §3, §4

A. niger ATCC 16404 = assay: MIC evaluation test; type: cell-based, Aspergillus brasiliensis (niger)
Method: In another exemplary procedure, MIC evaluation test with A. niger was performed in test tubes. Growth in this case is visually evaluated. A pure culture of a single microorganism was grown in Tryptic soy broth, or sabouraud broth for yeast and mold.
as §1, §2, §3, §4

C. albicans ATCC 10231 = assay: MIC evaluation test; type: cell-based, Candida albicans
Method: In additional exemplary procedure, minimum inhibitory concentration (MIC) evaluation test with Candida albicans was performed in test tubes. Growth in this case is visually evaluated. A pure culture of a single microorganism was grown in Tryptic soy broth, or sabouraud broth for yeast and mold.
as §1, §2, §3, §4

[2] = formulation on stainless steel 304
Method: Procedure: To a 0.5% solution of 90% Maltol and 10% Polyquaternium-80 in demineralized water a chelating agent was added in concentrations of 25 ppm, 50 ppm, 100 ppm, 150 ppm, 200 ppm and 250 ppm, then a chip of stainless steel 316 (˜1×1 cm) was added to the solution for 12 hr.
The absorbance at 410 nm was measured with spectrophotometer Genesys 10uv (Thermo Scientific), the blank was a solution of 0.5% 90% Maltol and 10% Polyquaternium-80 in demineralized water.

[3] = Staphylococcus aureus, ATCC6538
[4] = Pseudomonas aeruginosa, ATCC9027

Row | Molecule | absorbance at 410 nm ([1]; chelator Concentration (%) 0.5) | absorbance at 410 nm ([1]; chelator Concentration (%) 1) | absorbance at 410 nm ([1]; chelator Concentration (%) 2) | absorbance at 410 nm ([1]; chelator Concentration (%) 3) | absorbance at 410 nm ([1]; chelator Concentration (%) 4) | absorbance at 410 nm ([1]; chelator Concentration (%) 5) | other results
1 | O=C1O[C@H]([C@@H](O)CO)C(O)=C1O [Ascorbic acid] | 0.182 | 0.162 | 0.145 | 0.155 | 0.101 | 0.06 | 
2 | CCCCCCCCCCCC[N+](C)(C)Cc1ccccc1.[Cl-] [Benzyldimethyldodecylammonium chloride] |  |  |  |  |  |  | MIC (S. aureus ATCC 6538; [3]): < 60 µg/mL; MIC (E. coli ATCC 8739; Escherichia coli, ATCC8739): < 60 µg/mL; MIC (P. aeruginosa ATCC 9027; [4]): 120 µg/mL; MIC (A. niger ATCC 16404; Aspergillus niger, ATCC16404): < 60 µg/mL; MIC (C. albicans ATCC 10231; Candida albicans, ATCC10231): < 60 µg/mL
3 | O=C(O)CCN(CC(=O)O)CC(=O)O [Beta Alanine diAcetic acid] | 0.133 | 0.039 | 0.045 | 0.124 | 0.067 | 0.098 | 
4 | CCCCCCCCCC[N+](C)(C)CCCCCCCCCC.[Cl-] [Didecyldimethylammonium chloride] |  |  |  |  |  |  | MIC (S. aureus ATCC 6538; [3]): < 3 µg/mL; MIC (E. coli ATCC 8739; Escherichia coli, ATCC8739): < 3 µg/mL; MIC (P. aeruginosa ATCC 9027; [4]): 15 µg/mL; MIC (A. niger ATCC 16404; Aspergillus niger, ATCC16404): < 30 µg/mL; MIC (C. albicans ATCC 10231; Candida albicans, ATCC10231): < 30 µg/mL
5 | O=C([O-])CN(CCN(CC(=O)O)CC(=O)O)CC(=O)[O-].[Na+].[Na+] [Disodium EDTA, Ethylenediaminetetraacetic acid disodium salt] | 0.022 | 0.009 | 0.004 | 0.002 | 0 | 0 | absorbance at 410 nm ([2]; chelator Concentration (%) 0.5): 0.061; absorbance at 410 nm ([2]; chelator Concentration (%) 1): 0.010; absorbance at 410 nm ([2]; chelator Concentration (%) 2): 0.026; absorbance at 410 nm ([2]; chelator Concentration (%) 3): 0.007; absorbance at 410 nm ([2]; chelator Concentration (%) 4): 0; absorbance at 410 nm ([2]; chelator Concentration (%) 5): 0
6 | CCCCCCCCCCCC[N+](C)(C)C.[Cl-] [Dodecyltrimethylammonium chloride] |  |  |  |  |  |  | MIC (S. aureus ATCC 6538; [3]): < 60 µg/mL; MIC (E. coli ATCC 8739; Escherichia coli, ATCC8739): < 60 µg/mL; MIC (P. aeruginosa ATCC 9027; [4]): 360 µg/mL; MIC (A. niger ATCC 16404; Aspergillus niger, ATCC16404): 360 µg/mL; MIC (C. albicans ATCC 10231; Candida albicans, ATCC10231): < 60 µg/mL
7 | CCCCCCCCCCCC(=O)N[C@@H](CCCN=C(N)N)C(=O)OCC [Ethyl Lauroyl Arginate] |  |  |  |  |  |  | MIC (S. aureus ATCC 6538): 500 ppm; MIC (E. coli ATCC 8739): 2500 ppm; MIC (P. aeruginosa ATCC 9027): 5000 ppm; MIC (A. niger ATCC 16404): 20000 ppm; MIC (C. albicans ATCC 10231): 10000 ppm
8 | CSCC[C@H](N)C(=O)O [L-Methionine] | 0.113 | 0.391 | 0.393 | 0.102 | 0.311 | 0.096 | 
9 | Cc1occc(=O)c1O [Maltol] |  |  |  |  |  |  | MIC (S. aureus ATCC 6538; Staphylococcus aureus, ATCC6538, read-out: MIC): 3800 µg/mL (≈ 30.1 mM); MIC (E. coli ATCC 8739; Escherichia coli, ATCC8739, read-out: MIC): 4000 µg/mL (≈ 31.7 mM); MIC (P. aeruginosa ATCC 9027; Pseudomonas aeruginosa, ATCC9027, read-out: MIC): < 1350 µg/mL; MIC (A. niger ATCC 16404; Aspergillus niger, ATCC16404, read-out: MIC): 3150 µg/mL (≈ 25 mM); MIC (C. albicans ATCC 10231; Candida albicans, ATCC10231, read-out: MIC): 2250 µg/mL (≈ 17.8 mM)
10 | O=C([O-])[C@H](O)[C@@H](O)[C@H](O)[C@H](O)CO.[Na+] [Sodium gluconate] | 0.022 | 0.04 | 0.042 | 0.045 | 0.005 | 0.006 | 
11 | COc1cc(C(=O)[O-])ccc1O.[Na+] [Sodium vanillate] | 0.073 | 0.044 | 0.386 | 0.226 | 0.078 | 0.12 | 
12 | COc1cc(C=O)ccc1O [Vanillin] | 0.037 | 0.053 | 0.062 | 0.05 | 0.159 | 0.048 | 
13 | Zinc gluconate | 0.231 | 0.136 | 0.207 | 0.096 | 0.147 | 0.058 | 
